Measured values: patent US20240293367A1, “METHODS OF TREATING DISORDERS WITH A […]” (Cybin IRL Limited, priority 2023, published 2024)
Values joined by “and” are separate entries in the source; they are usually repeats but may differ in a detail not shown here. Equal values may be shown once.

System: participants with MDD
Test: MADRS total score, response, remission and relapse in MDD participants (Phase I/IIa study)
Assay type: in vivo, human
Conditions: for effect size, Cohen's d, versus placebo (MADRS): Day 21
Description: Cohorts 1, 4, 5, and 6 of the study was comprised of participants with MDD. Cohorts 2, 3, and the relative BA cohort of the study were comprised of normal healthy volunteers (NHV). […] MDD participants had been on a stable dose of antidepressant medication for at least one month prior to screening with an inadequate response to that antidepressant medication as judged by the Investigator, and continued to receive their prescribed antidepressant throughout the course of the study.
Cohorts 4 and 5. For Cohorts 4 and 5, 12 participants each (24 participants total) were randomized in a 3:1 ratio to receive 12 mg of psilocin-d10 or matched placebo in a single dosing session on Day 1. Following a 21-day interval, all participants received a dose of 12 mg psilocin-d10 on Day 22 (second dose for participants originally randomized to psilocin-d10, first dose for participants randomized to placebo), and were followed to Day 42.
Cohort 6. For Cohort 6, 12 participants were randomized in a 3:1 ratio to receive 16 mg of psilocin-d10 or matched placebo in a single dosing session on Day 1. Following a 21-day interval, all participants received a dose of 16 mg psilocin-d10 on Day 22 (second dose for participants originally randomized to psilocin-d10, first dose for participants randomized to placebo), and were followed to Day 42. Given the availability of data and considering that the secondary endpoint was a change in baseline to Day 21 in MADRS, efficacy data presented herein considers the data cut off of Day 21 postdose. One participant had to be withdrawn from the study due to pregnancy.
The primary efficacy endpoint defined in the statistical analysis plan (SAP) is the change from baseline to Day 21 of the total Montgomery-Åsberg Depression Rating Scale (MADRS) score compared to placebo, therefore efficacy data presented herein considers the data cut off of Day 21 postdose. Mean total score and change from baseline on Montgomery-Åsberg Depression Rating Scale (MADRS) on days 1, 10, 17, 22, 31, 38, and 42 are presented as secondary efficacy endpoints.
The secondary objective of the study was to evaluate the efficacy of psilocin-d10 in treating symptoms of MDD as measured by the change from baseline to Day 21 of the MADRS total score in the Intent-to-Treat population, with data analyzed according to the treatment group each participant was randomized to receive. Data from participants in Cohorts 4, 5, and 6 randomized to placebo was pooled for analysis purposes (N=9). Data from participants in Cohorts 4, 5, and 6 randomized to 12 mg or 16 mg psilocin-d10 (N=27) was also pooled for analysis.
Data from the study was also analyzed according to dosage level of psilocin-d10. Data from participants in Cohorts 4, 5, and 6 randomized to placebo was pooled for analysis purposes (N=9). Data from participants in Cohorts 4 and 5 (treated with 12 mg psilocin-d10) was also pooled for analysis (N=18).
The rates of remission, response, and relapse were also evaluated within the study. […] Additionally, 20.8% (5 out of 24) of participants in the psilocin-do group (12 mg and 16 mg combined) were in remission (remitters) (defined as a MADRS score of ≤10) compared to 0% for placebo at Day 21. The same 5 participants who were in remission were also classified as responders. None of the participants relapsed at Day 21 compared to baseline.
The MADRS is a 10-item scale with ratings based on a clinical interview which moves from broadly phrased questions about symptoms to more detailed ones allowing a precise rating of severity. A rating scale from 0 to 6 is employed and the rater must decide whether the rating lies on defined scale steps (0, 2, 4, 6) or between them (1, 3, 5). The MADRS can be used for any time interval between ratings, be it weekly or otherwise, and the time interval should be recorded. […]

[1] = Day 42, Cohort 4, two 12 mg doses
[2] = Day 42, Cohort 5, two 12 mg doses
[3] = Day 42, Cohort 6, two 16 mg doses
[4] = Day 42, Cohorts 4 and 5, two 12 mg doses
[5] = Day 42, Placebo/active group, one dose Day 22
[6] = Day 42, Placebo/active group: one psilocin-d10 dose Day 22
[7] = Day 42, two 12 mg doses (11 out of 14)
[8] = Day 42, two 12 mg doses, Cohorts 4 and 5
[9] = Day 42, two 16 mg doses, Cohort 6
[10] = Day 42, two doses (Day 1, Day 22), 12 and 16 mg pooled
[11] = Day 42, two doses, 12 and 16 mg pooled
[12] = Day 42, two doses, pooled 12 mg and 16 mg

[2H]C([2H])([2H])N(C([2H])([2H])[2H])C([2H])([2H])C([2H])([2H])c1c[nH]c2cccc(O)c12 [psilocin-d10, 3-(2-(bis(methyl-d3)amino)ethyl-1,1,2,2-d4)-1H-indol-4-ol]
Relapse - Yes [1]: 0 (0.0) n (%)
Remission (MADRS ≤10) - Yes [1]: 5 (71.4) n (%)
Remission - No [1]: 2 (28.6) n (%)
Response (≥50% reduction from baseline MADRS) - Yes [1]: 5 (71.4) n (%)
Response - No [1]: 2 (28.6) n (%)
Relapse - No [2]: 8 (100.0) n (%)
Relapse - Yes [2]: 0 (0.0) n (%)
Remission (MADRS ≤10) - Yes [2]: 6 (85.7) n (%)
Remission - No [2]: 1 (14.3) n (%)
Response (≥50% reduction from baseline MADRS) - Yes [2]: 6 (85.7) n (%)
Response - No [2]: 1 (14.3) n (%)
Relapse - No [3]: 8 (100.0) n (%)
Relapse - Yes [3]: 0 (0.0) n (%)
Remission (MADRS ≤10) - Yes [3]: 4 (50.0) n (%)
Remission - No [3]: 4 (50.0) n (%)
Response (≥50% reduction from baseline MADRS) - Yes [3]: 6 (75.0) n (%)
Response - No [3]: 2 (25.0) n (%)
Relapse - No [4]: 15 (100.0) n (%)
Relapse - Yes [4]: 0 (0.0) n (%)
Remission (MADRS ≤10) - Yes [4]: 11 (78.6) n (%)
Remission - No [4]: 3 (21.4) n (%)
Response (≥50% reduction from baseline MADRS) - Yes [4]: 11 (78.6) n (%)
Response - No [4]: 3 (21.4) n (%)
Relapse - No [5]: 9 (100.0) n (%)
Relapse - Yes [5]: 0 (0.0) n (%)
Remission - No [5]: 5 (55.6) n (%)
Response (≥50% reduction from baseline MADRS) - Yes [5]: 4 (44.4) n (%)
Response - No [5]: 5 (55.6) n (%)
Remission (MADRS ≤10) - Yes (Day 42, Placebo/active group, one dose Day 22 (pooled 12 mg and 16 mg)): 4 (44.4) n (%)
MADRS total score, Change from Baseline, Median [6]: −14.0
MADRS total score, Observed, Median [6]: 16.0
MADRS total score, Change from Baseline, Mean (Day 42, Placebo/active group: one psilocin-d10 dose Day 22 (12 and 16 mg pooled)): −16.4
MADRS total score, Observed, Mean (Day 42, Placebo/active group: placebo Day 1, one psilocin-d10 dose Day 22 (12 and 16 mg pooled)): 15.1
participants in remission (Day 42, after second dose, 12 mg and 16 mg combined (15 out of 22)): 68.2%
participants with response (Day 42, after second dose, 12 mg and 16 mg combined (17 out of 22)): 77.3% and 77%
participants with response (Day 42, placebo/psilocin-d10 group, first dose Day 22 (4 out of 9)): 44.4%
participants in remission [7]: 78.6%
participants with response [7]: 78.6%
MADRS total score, Change from Baseline, Mean [8]: −22.8
MADRS total score, Change from Baseline, Median [8]: −25.5
MADRS total score, Observed, Mean [8]: 9.4
MADRS total score, Observed, Median [8]: 3.5
participants in remission (Day 42, two 16 mg doses (4 out of 8)): 50.0%
participants with response (Day 42, two 16 mg doses (6 out of 8)): 75%
MADRS total score, Change from Baseline, Mean [9]: −17.6
MADRS total score, Change from Baseline, Median [9]: −20.5
MADRS total score, Observed, Mean [9]: 13.0
MADRS total score, Observed, Median [9]: 11.5
MADRS total score, Change from Baseline, Mean [10]: −20.9
MADRS total score, Observed, Mean [10]: 10.7
MADRS total score, Change from Baseline, Median [11]: −24.5
MADRS total score, Observed, Median [11]: 7.0
Relapse - No [12]: 22 (100.0) n (%)
Relapse - Yes [12]: 0 (0.0) n (%)
Remission (MADRS ≤10) - Yes [12]: 15 (68.2) n (%)
Remission - No [12]: 7 (31.8) n (%)
Response (≥50% reduction from baseline MADRS) - Yes [12]: 17 (77.3) n (%)
Response - No [12]: 5 (22.7) n (%)
MADRS, Difference in LS Means, 12 mg (two doses) compared to Placebo/active (one dose) (Day 42, 95% CI (−14.2, 7.5), P 0.5299): −3.34
MADRS, Difference in LS Means, 12 mg compared to Cohort 6 (16 mg) (Day 42, 95% CI (−15.3, 22.5), P 0.6999): 3.58
MADRS, difference in LS means, 16 mg (two doses) versus Placebo/active (one dose) (Day 42, 95% CI −22.8, 7.2, p=0.2931): −7.79
participants meeting criteria for response (Day 126, two 12 mg doses (Day 1, Day 22), N=15): 73%
participants meeting criteria for remission (Day 126, two 12 mg doses, N=15): 60%
participants meeting criteria for response (Day 126, two 16 mg doses (Day 1, Day 22), N=8): 75%
participants meeting criteria for remission (Day 126, two 16 mg doses, N=8): 75%
effect size, Cohen's d, versus placebo (MADRS) (single 12 mg dose, 95% CI: 0.92, 3.37): 2.15
effect size, Cohen's d, versus placebo (MADRS) (single 16 mg dose): 2.54
